Each structure is given as a SMILES string.

This note sets out measurements from US20110294663A1, “Herbicidal composition for tolerant or resistant corn crops” (priority 2010, published 2011).

Common to all, as to format: in vivo
The test system of series [1] is Setaria faberii. In words: Greenhouse trial: herbicidal efficacy, Setaria faberii. Particulars: Table 5; post-emergence, 1-3-leaf stage, scoring 14 days after treatment; g of ai/ha: A1.1 100; B1.1 5; C7 15; C13 2.5; C9 12.5 alone, 2.5 in combination. The protocol:
(§1) The trials were carried out under greenhouse conditions (test pots, diameter 8 cm, spray application using 300 l of water/hectare, 2 repetitions, 6 to 8 plants per pot).
(§2) Application was by post-emergence treatment; the species of the harmful plants and their stage of growth at the time of treatment are indicated in the individual results tables. The application rates of the herbicidally active compounds used on their own or in combinations are likewise listed in the individual results tables.
(§3) Scoring was by visual comparison of the treated with the untreated control pots (0-100% scale, 14 d after the application).
(§4) 4.2 Abbreviations used in Tables 4 to 8 application rate g/ai=application rate in grams of active compound per hectare • ai=active ingredient (of an active compound content of 100%) • GA=glufosinate-ammonium • GA-tolerant=corn which is tolerant to GA (GMO: LL corn) • E^C=expected value according to Colby, (E^C=A+B−A×B/100)= • =for ternary combinations: (A+B)+C−(A+B)×C/100 • Δ=difference (%) between observed value -%- vs. expected value (%) (observed value minus expected value) • examination: —observed values for (A), (B) and (A)+(B) in % • scoring: —observed value (%) greater>than E^C/E^A: ->synergism (+A) • —observed value (%) equal to =E^C/E^A->additive effect (+−Δ) • —observed value (%) smaller<than E^A/E^C->antagonism (−Δ)

For series [2], the system named is corn (GA-tolerant). The series is described as follows: Greenhouse trial: crop plant compatibility. How it is done:
as §1, §3

Series [3] deals with Eleusine indica. In words: Greenhouse trial: herbicidal efficacy, Eleusine indica. The note with it: Table 8; post-emergence, 1-2-leaf stage, scoring 14 days after treatment; g of ai/ha: A1.1 100; B1.1 5; C8 0.5; isoxadifen 100; cyprosulfamide 100; C′ = isoxadifen in r19, cyprosulfamide in r23. The protocol: as §1, §2, §3, §4
Series [4] concerns Pharbitis purpureum. The series is described as follows: Greenhouse trial: herbicidal efficacy, Pharbitis purpureum. The note with it: Table 7; post-emergence, 1-leaf stage, scoring 14 days after treatment; g of ai/ha: A1.1 100; B1.1 5; C12 50. How it is done: as §1, §2, §3, §4
Series [5] deals with Setaria viridis. In words: Greenhouse trial: herbicidal efficacy, Setaria viridis. The note with it: Table 6; post-emergence, 1-3-leaf stage, scoring 14 days after treatment; g of ai/ha: A1.1 100; B1.1 5; C3 5; C11 25. How it is done: as §1, §2, §3, §4
[6] abbreviates: Table 5, post-emergence, 1-3-leaf stage, scoring 14 days after treatment, g of ai/ha: A1.1 100, B1.1 5, C7 15, C13 2.5, C9 12.5 alone, 2.5 in combination.
Where [7] appears, read: Table 8, post-emergence, 1-2-leaf stage, scoring 14 days after treatment, g of ai/ha: A1.1 100, B1.1 5, C8 0.5, isoxadifen 100, cyprosulfamide 100, C′ = isoxadifen in r19, cyprosulfamide in r23.
[8] abbreviates: Table 4, post-emergence, 1-2-leaf stage, scoring 14 days after treatment, g of ai/ha: A1.1 100, B1.1 2.5 alone, 5 in combinations, C1 2.5, C2 1.25, C10 250, C4 50, C5 1, C6 2.

Regarding `CS(=O)(=O)c1ccc(C(=O)C2C(=O)CCCC2=O)c([N+](=O)[O-])c1` [(C7) mesotrione, mesotrione], the “Herbicidal efficacy % Setaria faberii” value in series [1] was 0%. Moreover, in series [2] (setting [6]), the “Damage to crop plants (%) corn (GA-tolerant) (≦15-20% acceptable)” value (shortened to “Damage to crop plants (%) corn”) turned out to be 0%.
In the case of `O=C(O)C1=NOC(c2ccccc2)(c2ccccc2)C1` [(C14) isoxadifen, isoxadifen], the “Herbicidal efficacy % Eleusine indica” value in series [3] turned out to be 0%. In addition, in series [2] (setting [7]), the “Damage to crop plants (%) corn” value was found to be 0%.
For `CCOCN(C(=O)CCl)c1c(C)cccc1CC` [(C12) acetochlor, acetochlor], the “Herbicidal efficacy % Pharbitis purpureum” value in series [4] is 10%. In series [2] (in vivo), the “Damage to crop plants (%) corn” value was found to be 0%.
Turning to `CS(=O)(=O)c1ccc(C(=O)C2C(=O)CCCC2=O)c(Cl)c1COCC(F)(F)F` [(C9) tembotrione, tembotrione], in series [1], the “Herbicidal efficacy % Setaria faberii” value worked out at 10%.
For `CC(C)N(C(=O)COc1nnc(C(F)(F)F)s1)c1ccc(F)cc1` [(C11) flufenacet, flufenacet], the “Herbicidal efficacy % Setaria viridis” value in series [5] was 0%. Besides, in series [2] (in vivo), the “Damage to crop plants (%) corn” value is on record as 0%.
`COC(=O)c1nc(-c2ccc(Cl)c(OC)c2F)cc(N)c1Cl` [(B1.1), methyl 4-amino-3-chloro-6-(4-chloro-2-fluoro-3-methoxyphenyl)pyridine-2-carboxylate]: the “Herbicidal efficacy % Setaria viridis” value in series [5] amounted to 90%. The “Herbicidal efficacy % Pharbitis purpureum” value in series [4] was determined as 45%. In addition, the “Herbicidal efficacy % Setaria faberii” value in series [1] turned out to be 96%. The “Damage to crop plants (%) corn” value in series [2] (in vivo) is reported as 0%.
For the molecule `CP(=O)(O)CCC(N)C(=O)O` (centres unmarked) [(A1.1) GA, glufosinate-ammonium], the “Herbicidal efficacy % Setaria viridis” value in series [5] was determined as 5%. Further, the “Herbicidal efficacy % Pharbitis purpureum” value in series [4] came out at 45%. Besides, in series [1], the “Herbicidal efficacy % Setaria faberii” value is reported as 10%. Also, the “Damage to crop plants (%) corn” value was 0% in series [2] (setting [8]); 0% in series [2] (setting [6]); 0% in series [2] (Table 6, post-emergence, 1-3-leaf stage, scoring 14 days after treatment, g of ai/ha: A1.1 100, B1.1 5, C3 5, C11 25); 0% in series [2] (Table 7, post-emergence, 1-leaf stage, scoring 14 days after treatment, g of ai/ha: A1.1 100, B1.1 5, C12 50); 0% in series [2] (setting [7]).
Turning to `COC(=O)c1csc(C)c1S(=O)(=O)NC(=O)n1nc(OC)n(C)c1=O` [(C8) thiencarbazone-me, thiencarbazone-methyl], the “Herbicidal efficacy % Eleusine indica” value in series [3] is reported as 10%. The “Damage to crop plants (%) corn” value in series [2] (setting [7]) is given as 0%.
On to `N#Cc1cc(Br)c(O)c(Br)c1` [(C4) bromoxynil, bromoxynil], for which, in series [2] (setting [8]), the “Damage to crop plants (%) corn” value is 0%.
On to `Cc1c(C(=O)c2cnn(C)c2O)ccc(S(C)(=O)=O)c1C1=NOCC1` [(C13) topramezone, topramezone], for which the “Herbicidal efficacy % Setaria faberii” value in series [1] is recorded as 10%. In series [2] (setting [6]), the “Damage to crop plants (%) corn” value was 0%.
For `COc1ccccc1C(=O)NS(=O)(=O)c1ccc(C(=O)NC2CC2)cc1` [(C15) cyprosulfamide, cyprosulfamide], in series [3], the “Herbicidal efficacy % Eleusine indica” value was 0%. The “Damage to crop plants (%) corn” value in series [2] (setting [7]) amounted to 0%.
In the case of `CS(=O)(=O)c1cc(C(F)(F)F)ccc1C(=O)c1cnoc1C1CC1` [(C3) isoxaflutole, isoxaflutole], the “Herbicidal efficacy % Setaria viridis” value in series [5] is given as 0%. Moreover, the “Damage to crop plants (%) corn” value in series [2] (in vivo) is given as 15%.
In the case of `C#CCN1C(=O)COc2cc(F)c(N3C(=O)C4=C(CCCC4)C3=O)cc21` [(C5) flumioxazin, flumioxazin], the “Damage to crop plants (%) corn” value in series [2] (setting [8]) came out at 15%.
The same measure, in the same setting: the result for `CCNc1nc(Cl)nc(NC(C)C)n1` [(C10) atrazin, atrazine] reads 0%.
